ChEMBL document CHEMBL5512603, “Development of de-novo coronavirus 3-chymotrypsin-like protease (3CLpro) inhibitors since COVID-19 outbreak: A strategy to tackle challenges of persistent virus infection” (Eur J Med Chem, 2024)

Assays:
[1] = molecular target: T1, Replicase polyprotein 1ab (Severe acute respiratory syndrome coronavirus 2, UniProt P0DTD1); assay: Inhibition of SARS-CoV-2 recombinant 3CLpro using fluorogenic substrate (Dabcyl-KTSAVLQ]SGFRK M-E
[2] = Oral bioavailability in Sprague-Dawley rat at 20 mg/kg; format: ADME, organism-based; conditions: in vivo
SARS-CoV-2 [3] = assay: Antiviral activity against SARS-CoV-2 infected in HAPEpIC cells at 0.01 MOI assessed as reduction in viral RNA copies by RT-qPCR analysis; format: functional, organism-based; conditions: Severe acute respiratory syndrome coronavirus 2
[4] = Bioavailability in Sprague-Dawley rat at 20 mg/kg, ip; format: ADME, organism-based; conditions: in vivo
SARS-CoV-2 [5] = assay: Antiviral activity against SARS-CoV-2 infected in African green monkey Vero E6 cells at 0.1 MOI assessed as inhibition of virus induced cytopathic effect by CCK8 assay; format: functional, organism-based; conditions: Severe acute respiratory syndrome coronavirus 2, Vero C1008
SARS-CoV-2 [6] = assay: Antiviral activity against SARS-CoV-2 infected in African green monkey Vero E6 cells assessed as inhibition of virus induced cytopathic effect by CellTiter-Glo luminescent cell viability assay; format: functional, organism-based; conditions: Severe acute respiratory syndrome coronavirus 2, Vero C1008
[7] = molecular target: T1, Replicase polyprotein 1ab; assay: Inhibition of SARS-CoV-2 3CLp using fluorescent substrate by FRET assay
SARS-CoV-2 [8] = assay: Antiviral activity against wild type SARS-CoV-2 infected in human Calu-3 cells; format: functional, organism-based; conditions: Severe acute respiratory syndrome coronavirus 2, Calu-3
[9] = molecular target: T1, Replicase polyprotein 1ab; assay: Inhibition of recombinant SARS-CoV2 6xHis-tag-Main protease containing modified HRV-3C expressed in Escherichia coli using Mca-AVLQSGFR-K(Dnp)K peptide substrate assessed as fluorescent intensity
[10] = molecular target: T1, Replicase polyprotein 1ab; assay: Inhibition of SARS-CoV-2 Main protease assessed as hydrolysis of quenched fluorogenic substrate
[11] = molecular target: Protein cereblon/Replicase polyprotein 1ab (Severe acute respiratory syndrome coronavirus 2, UniProt P0DTD1+Q96SW2); assay: PROTAC activity at SARS-CoV-2 Main protease/CRBN (unknown origin) in SARS-CoV-2 infected african green monkey Vero cell assessed as inhibition of virus-mediated cytopathic effect measured after 72 hrs; format: cell-based
Sequence of Protein cereblon/Replicase polyprotein 1ab (Q96SW2 whole entry, other chains not shown): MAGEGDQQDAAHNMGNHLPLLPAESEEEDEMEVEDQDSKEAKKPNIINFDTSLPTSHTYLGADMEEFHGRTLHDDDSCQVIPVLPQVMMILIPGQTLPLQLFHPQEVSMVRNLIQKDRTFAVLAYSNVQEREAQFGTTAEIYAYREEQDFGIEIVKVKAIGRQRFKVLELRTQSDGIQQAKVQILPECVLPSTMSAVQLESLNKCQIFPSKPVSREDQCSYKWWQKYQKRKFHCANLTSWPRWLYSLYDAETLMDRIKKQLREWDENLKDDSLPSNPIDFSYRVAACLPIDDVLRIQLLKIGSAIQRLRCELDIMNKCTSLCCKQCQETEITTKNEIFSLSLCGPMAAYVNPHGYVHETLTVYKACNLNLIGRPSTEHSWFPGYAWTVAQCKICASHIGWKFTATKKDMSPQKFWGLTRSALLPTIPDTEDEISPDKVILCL

[12] = molecular target: T1, Replicase polyprotein 1ab; assay: Inhibition of recombinant SARS-CoV-2 3CLp using fluorogenic substrate by microplate reader
[13] = Oral bioavailability in Sprague-Dawley rat at 10 mg/kg; format: ADME, organism-based; conditions: in vivo
SARS-CoV-2 [14] = assay: Antiviral activity against SARS-CoV-2 infected in African green monkey Vero E6 cells assessed as inhibition of viral replication incubated by plaque reduction assay; format: functional, organism-based; conditions: Severe acute respiratory syndrome coronavirus 2, Vero C1008
[15] = Oral bioavailability in rat; format: ADME, organism-based; conditions: in vivo
[16] = Cmax in po dosed rat; format: ADME, organism-based; conditions: in vivo
[17] = Half life in po dosed rat; format: ADME, organism-based; conditions: in vivo
[18] = AUClast in po dosed rat; format: ADME, organism-based; conditions: in vivo
[19] = Tmax in po dosed rat; format: ADME, organism-based; conditions: in vivo
SARS-CoV-2 [20] = assay: Antiviral activity against SARS-CoV-2 Delta; format: functional; conditions: Severe acute respiratory syndrome coronavirus 2, Delta

Compound: CNC(=O)[C@@H](Cc1cccc(F)c1)NC(=O)C1CN(C(=O)c2cncc3cccc(O)c23)CCN1Cc1ccc(Cl)cc1Cl (stereo not given in full)
- IC50 [1]: 165000 nM

Compound: CC1(C)[C@@H]2[C@H]1CN(C(=O)COc1ccc(OC(F)(F)F)cc1)[C@H]2C(=O)N[C@@H](C=O)C[C@H]1CCNC1=O
- bioavailability [2]: 11.2%
- EC50 (SARS-CoV-2 [3]): 1.2 nM
- bioavailability [4]: 78%
- EC50 (SARS-CoV-2 [5]): 860 nM

Compound: CC(C)[C@H]1C(=O)N2C[C@]3(C[C@H]2C#N)C(=O)Nc2ccc(cc23)CCCCCN1C(=O)c1cc2c(F)cc(F)c(F)c2[nH]1
- EC50 (SARS-CoV-2 [6]): < 100 nM
- IC50 [7]: < 100 nM

Compound: C[C@H](NC(=O)[C@@H](c1cccnc1)N(C(=O)CC#N)c1ccc(-c2ccccc2)cc1)c1ccccc1
- IC50 [7]: 500 nM
- EC50 (SARS-CoV-2 [8]): 2920 nM

Compound: CNC(=O)c1cc(C)cc([N+](=O)[O-])c1N1CC[C@]2(CCN(C(=O)c3cncc4cc(O)ccc34)C2)C1
- IC50 [1]: 49500 nM

Compound: CNC(=O)c1cc(Br)cc([N+](=O)[O-])c1N[C@@H]1CCC[C@H](NC(=O)c2cncc3cccc(O)c23)C1
- IC50 [1]: 62500 nM

Compound: CC(C)[C@H]1C(=O)N2C[C@]3(C[C@H]2C#N)C(=O)Nc2ccc(cc23)CCCCCN1C(=O)c1cc2ccc(C(F)(F)F)cc2[nH]1
- EC50 (SARS-CoV-2 [6]): < 100 nM
- IC50 [7]: 100 nM

Compound: O=c1c2cccc(Br)c2sn1-c1ccccc1
- IC50 [9]: > 100000 nM

Compound: O=C[C@@H](C[C@H]1CCNC1=O)NC(=O)[C@H]1[C@@H]2CCC[C@@H]2CN1C(=O)COc1ccc(Cl)cc1Cl
- bioavailability [2]: 14.6%
- EC50 (SARS-CoV-2 [3]): 1.1 nM
- bioavailability [4]: 76.2%
- EC50 (SARS-CoV-2 [5]): 540 nM

Compound: Cc1c(Br)cncc1NC[C@@H](N)CC1CCCCC1
- IC50 [10]: 7500 nM

Compound: CC(C)C[C@H](NC(=O)Oc1ccc(OCc2cn(CCCCCOCC(=O)Nc3cccc4c3C(=O)N(C3CCC(=O)NC3=O)C4=O)nn2)cc1)C(=O)N[C@H](CO)C[C@@H]1CCNC1=O (stereo not given in full)
- EC50 [11]: 250 nM

Compound: O=C1NCC[C@H]1C[C@H](NC(=O)[C@@H]1[C@H]2CCC[C@H]2CN1C(=O)COc1ccc(Cl)cc1Cl)C(=O)CF
- IC50 [12]: 18 nM
- bioavailability [13]: 55.1%
- EC50 (SARS-CoV-2 [14]): 240 nM

Compound: Cn1cc2cc(/N=c3\[nH]c(=O)n(Cc4cnn[nH]4)c(=O)n3Cc3cc(F)c(F)cc3F)c(Cl)cc2n1
- bioavailability [15]: 88.1%
- Cmax [16]: 6270 ng/mL
- half-life [17]: 2.51 h
- AUC(0-t) [18]: 32600 ng·h/mL
- Tmax [19]: 1 h

Compound: Cc1c(COC2CCC(OC(=O)N[C@@H](CC(C)C)C(=O)N[C@H](C=O)C[C@@H]3CCNC3=O)CC2)nnn1CCOCCNC(=O)CCC(=O)Nc1cccc2c1C(=O)N(C1CCC(=O)NC1=O)C2=O (stereo not given in full)
- EC50 [11]: 620 nM

Compound: N#C[C@H](C[C@@H]1CCCNC1=O)NC(=O)[C@H](CC1CC1)NC(=O)c1cc2cccc(Cl)c2[nH]1 [POMOTRELVIR]
- EC90 (SARS-CoV-2 [20]): 78 nM
